Measured values from patent US11698366B2, “Human tissue stem cell and use thereof” (KEIO UNIVERSITY, priority 2017, dated 2023).

Assays:
[1] = system: cancer stem cell; experiment: LGR5-iCT/CMV-GFP organoid screening, tdTomato fluorescence; format: cell-based, human; conditions: final concentration shown in FIG. 8; DMSO control
Text: In addition, Irinotecan, Cetuximab, and Oxaliplatin are existing anticancer drugs. In addition, “DMSO” refers to dimethyl sulfoxide added to the medium instead of the anticancer drug as a control.

[2] = system: cancer cell; experiment: LGR5-iCT/CMV-GFP organoid screening, GFP fluorescence; format: cell-based, human; conditions: final concentration shown in FIG. 8; DMSO control
Text: A CMV-GFP construct was further introduced into the LGR5-iCT organoid prepared in Experimental Example 4. In the CMV-GFP construct, a GFP gene was linked downstream of the CMV promoter, which is the forced expression promoter. Therefore, regardless of whether or not the LGR5 gene was expressed, the GFP gene was expressed in all cells and emitted fluorescence of the GFP protein. Hereinafter, these organoids may be referred to as “LGR5-iCT/CMV-GFP organoids” in some cases.
In the LGR5-iCT/CMV-GFP organoid, survival activity of the cancer cell can be observed by fluorescence of GFP, and survival activity of the cancer stem cell can be observed by fluorescence of tdTomato.
Using the LGR5-iCT/CMV-GFP organoid, high-throughput screening of existing anticancer drugs used for the treatment of colon cancer was performed, and the effects on the cancer cells and the cancer stem cells were examined.
FIG. 8 is a micrograph of an organoid showing a typical result. In FIG. 8, “BRIGHT FIELD” indicates a bright field observation image. “CMV-GFP” indicates a fluorescence micrograph obtained by observing GFP fluorescence”. “LGR5-tdTomato” indicates a fluorescence micrograph obtained by observing tdTomato fluorescence. “Merge” indicates the result obtained by synthesizing the bright-field observation image, the GFP fluorescence micrograph, and the micrograph of tdTomato fluorescence. […]

[3] = system: tumor derived from LGR5-iCT organoid; experiment: Tumor size of LGR5-iCT organoid xenograft measured regularly; format: in vivo, NOG mice
Procedure: The LGR5-iCT organoid was xenografted under the renal capsule of NOG mice (7-12 weeks old, male) by the same method as Experimental Example 2. Subsequently, after a tumor was formed, the AP20187 was administered to mice daily for 5 days. In addition, control mice to which only a solvent was administered daily for 5 days. Thereafter, a tumor size of each mouse was measured regularly.
In addition, FIG. 6 is a graph showing a result obtained by measuring the size of a tumor of each of a mouse (Dimerizer) to which the AP20187 is administered and the control mouse (Vehicle), regularly. As a result, it was confirmed that the tumor size was reduced by the administration of the AP20187.
In addition, the inventors examined the expression of the LGR5 gene in the tumor tissue after the administration of the AP20187. […] In addition, it was also clear that a re-increase of the tumor size corresponds to re-expression of the LGR5 gene.

[4] = system: LGR5-positive cancer stem cell; experiment: Tumor tissue sections of LGR5-iCT organoid xenograft (tdTomato fluorescence, KRT20 immunostaining); format: in vivo, NOG mice; conditions: tumor section on the 5th day from start of administration, daily for 5 days
Text: First, an IRES-iCaspase9-T2A-tdTomato construct was introduced into the LGR5 gene locus of the cultured organoid derived from colon cancer by the same method as in Experimental Example 1. Hereinafter, these organoids may be referred to as “LGR5-iCT organoids” in some cases.
iCaspase 9 is a drug-induced suicide gene. The iCaspase 9 has no activity in a monomer, but forms a dimer in the presence of AP20187 (dimerizer, APExBIO) to induce apoptosis. Also, TdTomato is a kind of red fluorescent protein (RFP).
FIG. 4 is a diagram illustrating a structure of the completed LGR5 gene locus and behavior of the drug-induced suicide gene. […] Therefore, it is possible to confirm the presence of the LGR5-positive cell by observing the fluorescence of the tdTomato. […] As a result, the fluorescence of the tdTomato becomes not observed.
The LGR5-iCT organoid was xenografted under the renal capsule of NOG mice (7-12 weeks old, male) by the same method as Experimental Example 2. […] Thereafter, a tumor size of each mouse was measured regularly.
FIGS. 5 (a) and 5(b) show fluorescence micrographs of a result obtained by extracting a tumor of each mouse on the 5th day from the start of administration of the AP20187 to prepare a tissue section and detecting the fluorescence of the tdTomato and KRT20 as a differentiation marker by immunostaining. […]

SMILES | effect against the cancer stem cell (tdTomato fluorescence) [1] | effect against the cancer cell (GFP fluorescence) [2] | tumor size ([3]; after administration daily for 5 days) | tumor growth ([3]; continuous cancer stem cell treatment, tumor not completely cured) | expression of the LGR5 gene in the tumor tissue after administration ([3]; expression once disappeared, corresponds to re-increase of tumor size) | tumor size, eventually ([3]; later after the end of the 5-day administration) | effect on LGR5-negative cell [4] | effect on LGR5-positive cancer stem cell (apoptosis) [4]
CCc1c2c(nc3ccc(OC(=O)N4CCC(N5CCCCC5)CC4)cc13)-c1cc3c(c(=O)n1C2)COC(=O)[C@]3(O)CC [irinotecan] | not effective | showed a growth suppression effect | – | – | – | – | – | –
CC[C@H](C(=O)N1CCCC[C@H]1C(=O)O[C@H](CCc1ccc(OC)c(OC)c1)c1cccc(OCC(=O)NCC(CNC(=O)COc2cccc([C@@H](CCc3ccc(OC)c(OC)c3)OC(=O)[C@@H]3CCCCN3C(=O)[C@@H](CC)c3cc(OC)c(OC)c(OC)c3)c2)CN(C)C)c1)c1cc(OC)c(OC)c(OC)c1 [AP20187] | – | – | reduced | could suppress tumor growth | recognized again | increased again | remained intact | completely died
O=C1[O][Pt]2([NH][C@@H]3CCCC[C@H]3[NH]2)[O]C1=O [oxaliplatin] | kills | kills | – | – | – | – | – | –
